This is an account of results in patent US20260001914A1, “MACROCYCLIC PEPTIDES TARGETING KRAS” (Merck Sharp & Dohme LLC, priority 2022, published 2026).

pEC50: −log10 of the molar value. *1 amine or outer side, *2 acyl side, *3 side chain or, on linkers, in order; H or OH if unused. Where a SMILES comes first, the peptide text is derived from it. Bridges are numbered along the chain shown (N, C = ends). [ ]: non-standard residue; d: D form. NMeNva(5-imidazol-1-yl) = CN[C@@H](CCCn1ccnc1)C(=O)O; X18 = CNC(=N)N(C)c1ccc(C[C@H](N[*:1])C(=O)[*:2])cc1; Ala(pyrimidin-5-yl) = N[C@@H](Cc1cncnc1)C(=O)O; NMe3Pal(5-F) = CN[C@@H](Cc1cncc(F)c1)C(=O)O; X33 = O=C([C@H](Cc1ccnc(F)c1F)N[*:1])[*:2]; X25 = O=C([C@H](Cc1ccc(F)nc1)N[*:1])[*:2]; X10 = CS(=O)(=O)CCCCN(CC(=O)[*:2])[*:1]; X11 = CC(C)(F)CC[C@H](N[*:1])C(=O)[*:2]; Nle(5,5-F2) = CC(F)(F)CC[C@H](N)C(=O)O; Phe(3-Me) = Cc1cccc(C[C@H](N)C(=O)O)c1; Phe(2-F) = N[C@@H](Cc1ccccc1F)C(=O)O; Abu(4,4-F2) = N[C@@H](CC(F)F)C(=O)O; NMe3Pal = CN[C@@H](Cc1cccnc1)C(=O)O; X1 = O=C(C12CC(CN[*:1])(C1)C2)[*:2]; X17 = O=C([C@H](CCCCF)N[*:1])[*:2]; Ala(cPr) = N[C@@H](CC1CC1)C(=O)O; NMeF = CN[C@@H](Cc1ccccc1)C(=O)O; PhLac = O=C(O)[C@@H](O)Cc1ccccc1; 3Pal = N[C@@H](Cc1cccnc1)C(=O)O; hLeu = CC(C)CC[C@H](N)C(=O)O; αMeC = C[C@](N)(CS)C(=O)O; NMeA = CN[C@@H](C)C(=O)O; Nle = CCCC[C@H](N)C(=O)O

Chain of phosphorylation levels of ERK1/2 in AsPC-1 (homozygous KRAS-G12D) cells (P01116 1-186 G12D): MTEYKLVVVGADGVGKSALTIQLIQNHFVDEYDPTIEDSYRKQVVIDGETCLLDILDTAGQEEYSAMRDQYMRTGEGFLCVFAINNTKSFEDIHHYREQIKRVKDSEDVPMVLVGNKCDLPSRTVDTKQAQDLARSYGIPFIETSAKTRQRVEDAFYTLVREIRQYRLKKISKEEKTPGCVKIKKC

This test addresses phosphorylation levels of ERK1/2 in AsPC-1 (homozygous KRAS-G12D) cells (Homo sapiens, UniProt P01116, G12D). The experiment in a line: Cellular phospho-ERK assay in AsPC-1 cells (Alpha Screen), assay medium without fetal bovine serum.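 Also: signal taken as phospho-ERK over total ERK per well, both detected in one multiplex bead assay, EC50 from four-parameter logistic fit of dose-response curves.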 Type of test: cell-based. To be noted: phospho-ERK AlphaScreen, 18 h. For orientation: Bead proximity is the source of the signal in Alpha formats.
Experimental: Assay plate was incubated at 37° C. 5% CO2 for the indicated length of time. […] Phosphorylated ERK and total ERK levels were detected by Alpha SureFire Ultra Multiplex pERK kit (PerkinElmer MPSU-PTERK) using 5 μL, acceptor bead mix and 5 μL donor bead mix, both prepared following the manufacturer's protocol. Plates were sealed using aluminum sealing tape (Costar 07-200-683) during incubation at ambient temperature with constant shaking at 300 rpm for 1 h (both acceptor and donor). Assay plates were read on a Envision Xcite Multilabel Reader (PerkinElmer 1040900) at ambient temperature, with emission at 535 nm (Total ERK) and emission at 615 nm (Phospho ERK). Ratio of pERK vs total ERK in each well was used as the final readout. Dose response curves and EC50 were analyzed using a 4-parameter logistic equation in GraphPad Prism software.
By pEC50 is commonly meant −log10 of the EC50, conventionally taken in molar units. A higher pEC50 goes with a small EC50. As for `C[C@H]1C(=O)N[C@@H](Cc2cccnc2)C(=O)N[C@@H](CC2CC2)C(=O)N[C@@H](Cc2ccccc2F)C(=O)N[C@@H](CCC(C)(F)F)C(=O)N(C)[C@@H](Cc2ccccc2)C(=O)NCC23CC(C2)(C3)C(=O)O[C@@H](Cc2ccccc2)C(=O)N1C` [compound 289, cyclo(FLac-NMeA-3Pal-cPrA-Phe2F-Nle3F2-NMeF-amBCP)] (cyclo([3Pal][Ala(cPr)][Phe(2-F)][Nle(5,5-F2)][NMeF][X1][PhLac][NMeA])), the pEC50 is 5.97.
For the molecule `CCCC[C@@H]1NC(=O)[C@H](Cc2cccnc2)NC(=O)[C@H](C)N(C)C(=O)[C@H](Cc2ccccc2)OC(=O)C23CC(CNC(=O)[C@H](Cc4ccccc4)N(C)C(=O)[C@H](CCCC)NC(=O)[C@H](Cc4ccccc4F)NC1=O)(C2)C3` [compound 236, cyclo(FLac-NMeA-3Pal-Nle-Phe2F-Nle-NMeF-amBCP)] (cyclo([3Pal][Nle][Phe(2-F)][Nle][NMeF][X1][PhLac][NMeA])), the pEC50 is 5.84.
`CC(C)CC[C@@H]1NC(=O)[C@H](Cc2ccnc(F)c2F)NC(=O)[C@H](CC2CC2)NC(=O)[C@H](Cc2cncnc2)NC(=O)[C@H](C)N(C)C(=O)[C@H](Cc2ccccc2)OC(=O)C23CC(CNC(=O)[C@H](Cc4ccccc4)N(C)C1=O)(C2)C3` [compound 293, cyclo(FLac-NMeA-PyrimAla-cPrA-4Pal23F2-hL-NMeF-amBCP)] (cyclo([Ala(cPr)][X33][hLeu][NMeF][X1][PhLac][NMeA][Ala(pyrimidin-5-yl)])) showed a pEC50 of 4.34.
`CCCC[C@@H]1NC(=O)[C@H](Cc2cccnc2)NC(=O)[C@H](C)N(C)C(=O)[C@H](Cc2cccc(C)c2)NC(=O)C23CC(CNC(=O)[C@H](Cc4cccnc4)N(C)C(=O)[C@H](CCCC)NC(=O)[C@H](Cc4ccccc4F)NC1=O)(C2)C3` [compound 166, cyclo(Phe3Me-NMeA-3Pal-Nle-Phe2F-Nle-NMe3Pal-amBCP)] (cyclo([3Pal][Nle][Phe(2-F)][Nle][NMe3Pal][X1][Phe(3-Me)][NMeA])) showed a pEC50 of 4.49.
On to `CCCC[C@@H]1NC(=O)[C@H](Cc2cccnc2)NC(=O)CN(CCCCS(C)(=O)=O)C(=O)[C@H](Cc2ccccc2)OC(=O)C23CC(CNC(=O)[C@H](Cc4cccnc4)N(C)C(=O)[C@H](CCCC)NC(=O)[C@H](Cc4ccccc4F)NC1=O)(C2)C3` [compound 407, cyclo(FLac-NOHmsbGly-3Pal-Nle-Phe2F-Nle-NMe3Pal-amBCP)] (cyclo([3Pal][Nle][Phe(2-F)][Nle][NMe3Pal][X1][PhLac][X10])), for which the pEC50 was below 4.29.
In turn, `CCCC[C@@H]1NC(=O)[C@H](Cc2ccc(N(C)C(=N)NC)cc2)NC(=O)[C@H](C)N(C)C(=O)[C@H](Cc2ccccc2)OC(=O)CSC[C@@](C)(C(N)=O)NC(=O)[C@H](Cc2cccnc2)N(C)C(=O)[C@H](CCCC)NC(=O)[C@H](Cc2ccccc2F)NC1=O` [compound 397, cyclo(FLac-NMeA-Phe4GnMeMe-Nle-Phe2F-Nle-NMe3Pal-aMeCl-ClAc)] ({CH2CO}-[PhLac][NMeA][X18][Nle][Phe(2-F)][Nle][NMe3Pal][αMeC]-NH2; thioether N-8) showed a pEC50 below 4.29.
The value for `CCCC[C@@H]1NC(=O)[C@H](Cc2cccnc2)NC(=O)[C@H](C)N(C)C(=O)[C@H](Cc2ccc(F)nc2)NC(=O)C23CC(CNC(=O)[C@H](Cc4cccnc4)N(C)C(=O)[C@H](CCCC)NC(=O)[C@H](Cc4ccccc4F)NC1=O)(C2)C3` [compound 165, cyclo(4F3Pal-NMeA-3Pal-Nle-Phe2F-Nle-NMe3Pal-amBCP)] (cyclo([3Pal][Nle][Phe(2-F)][Nle][NMe3Pal][X1][X25][NMeA])) was below 4.29.
The result for `CCCC[C@@H]1NC(=O)[C@H](Cc2cncnc2)NC(=O)[C@H](CCCn2ccnc2)N(C)C(=O)[C@H](Cc2ccccc2)OC(=O)C23CC(CNC(=O)[C@H](Cc4cccnc4)N(C)C(=O)[C@H](CCCC)NC(=O)[C@H](Cc4ccccc4F)NC1=O)(C2)C3` [compound 240, cyclo(FLac-NMeNvalmid-PyrimAla-Nle-Phe2F-Nle-NMe3Pal-amBCP)] (cyclo([NMe3Pal][X1][PhLac][NMeNva(5-imidazol-1-yl)][Ala(pyrimidin-5-yl)][Nle][Phe(2-F)][Nle])) reads below 4.29; that for `CCCC[C@@H]1NC(=O)[C@H](Cc2ccc(O)cc2)NC(=O)[C@H](CC2CCCCC2)NC(=O)[C@H](CCCCN)NC(=O)[C@H](CCCNC(=N)N)NC(=O)[C@H](Cc2cccc3ccccc23)NC(=O)CSC[C@H](C(N)=O)NC(=O)[C@H](Cc2ccccc2)N(C)C1=O` [compound 139, cyclo(INal-R-K-Cha-Y-Nle-NMeF-dCl-ClAc)], below 4.29; that for `C[C@H]1C(=O)N[C@@H](Cc2cncnc2)C(=O)N[C@@H](CC2CC2)C(=O)N[C@@H](Cc2ccccc2F)C(=O)N[C@@H](CC(F)F)C(=O)N(C)[C@@H](Cc2ccccc2)C(=O)NCC23CC(C2)(C3)C(=O)O[C@@H](Cc2ccccc2)C(=O)N1C` [compound 271, cyclo(FLac-NMeA-PyrimAla-cPrA-Phe2F-AbuF2-NMeF-amBCP)] (cyclo([Ala(cPr)][Phe(2-F)][Abu(4,4-F2)][NMeF][X1][PhLac][NMeA][Ala(pyrimidin-5-yl)])), 4.44.
`C[C@H]1C(=O)N[C@@H](Cc2cncnc2)C(=O)N[C@@H](CCCCF)C(=O)N[C@@H](Cc2ccccc2F)C(=O)N[C@@H](CCCCF)C(=O)N(C)[C@@H](Cc2ccccc2)C(=O)NCC23CC(C2)(C3)C(=O)O[C@@H](Cc2ccccc2)C(=O)N1C` [compound 128, cyclo(FLac-NMeA-PyrimAla-NleF-Phe2F-NleF-NMeF-amBCP)] (cyclo([NMeA][Ala(pyrimidin-5-yl)][X17][Phe(2-F)][X17][NMeF][X1][PhLac])) had a pEC50 of 5.43.
The result for `C[C@H]1C(=O)N[C@@H](Cc2cccnc2)C(=O)N[C@@H](CC2CC2)C(=O)N[C@@H](Cc2ccccc2F)C(=O)N[C@@H](CCC(C)(C)F)C(=O)N(C)[C@@H](Cc2cncc(F)c2)C(=O)NCC23CC(C2)(C3)C(=O)O[C@@H](Cc2ccccc2)C(=O)N1C` [compound 284, cyclo(FLac-NMeA-3Pal-cPrA-Phe2F-hL3F-NMe3Pal5F-amBCP)] (cyclo([3Pal][Ala(cPr)][Phe(2-F)][X11][NMe3Pal(5-F)][X1][PhLac][NMeA])) reads 5.34; that for `C[C@H]1C(=O)N[C@@H](Cc2cncnc2)C(=O)N[C@@H](CC2CC2)C(=O)N[C@@H](Cc2ccccc2F)C(=O)N[C@@H](CCC(C)(F)F)C(=O)N(C)[C@@H](Cc2ccccc2)C(=O)NCC23CC(C2)(C3)C(=O)O[C@@H](Cc2ccccc2)C(=O)N1C` [compound 276, cyclo(FLac-NMeA-PyrimAla-cPrA-Phe2F-Nle3F2-NMeF-amBCP)] (cyclo([Ala(cPr)][Phe(2-F)][Nle(5,5-F2)][NMeF][X1][PhLac][NMeA][Ala(pyrimidin-5-yl)])), 6.18.
For the molecule `CCCCC[C@@H]1NC(=O)[C@H](Cc2ccc(OC)cc2)NC(=O)[C@H](CC2CCC2)NC(=O)[C@H](Cc2ccc(N(C)C(=N)NC)cc2)NC(=O)[C@H](CCCNC(=N)N)NC(=O)[C@H](Cc2ccccc2)NC(=O)CSC[C@@](C)(C(N)=O)NC(=O)[C@H](Cc2ccccc2)N(C)C1=O` [compound 382, cyclo(F-R-Phe4GnMeMe-cBuA-TyrOMe-Ahp-NMeF-aMeCl-ClAc)], the pEC50 is below 4.29.
